Here are results for six substances from patent US11312790B2, “Production method for pentosan polysulfate” (OJI HOLDINGS CORPORATION, priority 2016, dated 2022).

The target in one experiment is T1, factor IIa (Homo sapiens, UniProt P00734).
T1 construct: purchased Hyphen BioMed Biophen heparin anti-IIa
Put plainly: Measurement of anti-IIa activity using Biophen heparin anti-IIa. The experiment is classed as biochemical. The following applies: Biophen heparin anti-IIa kit. The text has this: In general, anticoagulant activity is based on the activity of inhibiting blood coagulation factors. That is, when anticoagulant activity is high, a blood coagulation reaction is inhibited. Blood coagulation factors refer to the action system of a series of molecules in a living body for coagulating blood when bleeding etc. Successive activation of a large number of blood coagulation factors agglutinates fibrin, and stops bleeding in the bleeding area. Representative examples of blood coagulation factors include factor Xa and factor IIa. Blood coagulation can be inhibited by inhibiting the activity of these factors. The factor IIa inhibitory activity (anti-IIa activity) can be measured using Biophen heparin anti-IIa (manufactured by Hyphen BioMed). Measurement of Anti-IIa Activity The anti-IIa activity of pentosan polysulfate sodium was measured using Biophen heparin anti-IIa (manufactured by Hyphen BioMed).

In the next experiment the test system is factor Xa. Put plainly: Measurement of anti-Xa activity using Test Team Heparin S. The format is biochemical. The following applies: Test Team Heparin S kit. The text has this:
In general, anticoagulant activity is based on the activity of inhibiting blood coagulation factors. That is, when anticoagulant activity is high, a blood coagulation reaction is inhibited. Blood coagulation factors refer to the action system of a series of molecules in a living body for coagulating blood when bleeding etc. Successive activation of a large number of blood coagulation factors agglutinates fibrin, and stops bleeding in the bleeding area. Representative examples of blood coagulation factors include factor Xa and factor IIa. Blood coagulation can be inhibited by inhibiting the activity of these factors. Here, the factor Xa inhibitory activity (anti-Xa activity) can be measured using Test Team (registered trademark) Heparin S (manufactured by Sekisui Medical Co., Ltd.). Measurement of Anti-Xa Activity The anti-Xa activity of pentosan polysulfate sodium was measured using Test Team (registered trademark) Heparin S (manufactured by Sekisui Medical Co., Ltd.).

“pentosan polysulfate sodium [Comparative Example 1, reference compound]” came in with an Anti-IIa activity on factor IIa of 0.0221 IU/mg. Besides, in the experiment on factor Xa, the Anti-Xa activity is listed as 0.0840 IU/mg.
Taken in the same sequence, the figures for pentosan polysulfate sodium [Example 2] were 0.1845 IU/mg and 0.2588 IU/mg.
Substance pentosan polysulfate sodium [Example 5] showed an Anti-IIa activity at factor IIa of 0.0976 IU/mg. The Anti-Xa activity in the experiment with factor Xa is listed as 0.2297 IU/mg.
pentosan polysulfate sodium [Example 4]: the Anti-IIa activity on factor IIa amounted to 0.0934 IU/mg. The same substance registered an Anti-Xa activity in the experiment with factor Xa of 0.2419 IU/mg.
Consider pentosan polysulfate sodium [Example 3], for which, on factor IIa, the Anti-IIa activity turned out to be 0.0676 IU/mg. Further, the Anti-Xa activity in the experiment on factor Xa was found to be 0.2439 IU/mg.
The matching figures for pentosan polysulfate sodium [Example 1]: 0.1405 IU/mg and 0.2047 IU/mg.
